# In PubChem BioAssay AID1963960 (Molecular Pharmacology Branch, DTP, NCI, 2024):
# System: MDA-MB-468 spheroids with HUVEC/MSC, viability
# Experiment: Anticancer human tumor MDA-MB-468 cell line growth inhibition [PI3K];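 note: spheroids exposed to agents for seven days before readout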;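 for viability, T/C: 100% = DMSO vehicle control viability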
# Settings: for IC50: curve of first compound; for viability, T/C: stronger effect = lower value
# Summary of the method: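 High-throughput combination screen: PI3K inhibitors crossed with targeted small molecules on complex spheroids of tumor cells, HUVEC and MSCs at 37 degrees C, 5% CO2. Top concentration was at or near clinical Cmax (otherwise 10 microM), with half-log decrements.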
# [1] = second compound 0.0316 µM, first compound 0.0316 µM
# [2] = second compound 0.0316 µM, first compound 0.1 µM
# [3] = second compound 0.0316 µM, first compound 0.316 µM
# [4] = second compound 0.0316 µM, first compound 1 µM
# [5] = second compound 0.0316 µM, first compound 3.16 µM
# [6] = second compound 0.0316 µM, first compound 10 µM
# [7] = second compound 0.1 µM, first compound 0.0316 µM
# [8] = second compound 0.1 µM, first compound 0.1 µM
# [9] = second compound 0.1 µM, first compound 0.316 µM
# [10] = second compound 0.1 µM, first compound 1 µM
# [11] = second compound 0.1 µM, first compound 3.16 µM
# [12] = second compound 0.1 µM, first compound 10 µM
# [13] = second compound 0.316 µM, first compound 0.0316 µM
# [14] = second compound 0.316 µM, first compound 0.1 µM
# [15] = second compound 0.316 µM, first compound 0.316 µM
# [16] = second compound 0.316 µM, first compound 1 µM
# [17] = second compound 0.316 µM, first compound 3.16 µM
# [18] = second compound 0.316 µM, first compound 10 µM
# [19] = second compound 1 µM, first compound 0.0316 µM
# [20] = second compound 1 µM, first compound 0.1 µM
# [21] = second compound 1 µM, first compound 0.316 µM
# [22] = second compound 1 µM, first compound 1 µM
# [23] = second compound 1 µM, first compound 3.16 µM
# [24] = second compound 1 µM, first compound 10 µM
# [25] = second compound 3.16 µM, first compound 0.0316 µM
# [26] = second compound 3.16 µM, first compound 0.1 µM
# [27] = second compound 3.16 µM, first compound 0.316 µM
# [28] = second compound 3.16 µM, first compound 1 µM
# [29] = second compound 3.16 µM, first compound 3.16 µM
# [30] = second compound 3.16 µM, first compound 10 µM
# [31] = second compound 10 µM, first compound 0.0316 µM
# [32] = second compound 10 µM, first compound 0.1 µM
# [33] = second compound 10 µM, first compound 0.316 µM
# [34] = second compound 10 µM, first compound 1 µM
# [35] = second compound 10 µM, first compound 3.16 µM
# [36] = second compound 10 µM, first compound 10 µM
smiles,measurement,setting,value
C#Cc1c(F)ccc2cc(O)cc(-c3ncc4c(N5CC6CCC(C5)N6)nc(OCC56CCCN5CC(F)C6)nc4c3F)c12 (stereo unspecified) + Cc1nc(NC(=O)N2CCCC2C(N)=O)sc1-c1ccnc(C(C)(C)C(F)(F)F)c1,IC50,second compound 0.0316 µM,> 10 µM
same,IC50,second compound 0.1 µM,7.36 µM
same,IC50,second compound 0.316 µM,5.64 µM
same,IC50,second compound 1 µM,3.09 µM
same,IC50,second compound 3.16 µM,0.96 µM
same,IC50,second compound 10 µM,< 0.0316 µM
same,"viability, T/C",[1],83.2%
same,"viability, T/C",[2],84.4%
same,"viability, T/C",[3],80.2%
same,"viability, T/C",[4],106%
same,"viability, T/C",[5],100%
same,"viability, T/C",[6],52.3%
same,"viability, T/C",[7],91.1%
same,"viability, T/C",[8],89.1%
same,"viability, T/C",[9],88.9%
same,"viability, T/C",[10],101%
same,"viability, T/C",[11],79.9%
same,"viability, T/C",[12],39.2%
same,"viability, T/C",[13],92.4%
same,"viability, T/C",[14],85.6%
same,"viability, T/C",[15],69.9%
same,"viability, T/C",[16],80.9%
same,"viability, T/C",[17],75.6%
same,"viability, T/C",[18],24.7%
same,"viability, T/C",[19],92.4%
same,"viability, T/C",[20],81.8%
same,"viability, T/C",[21],71.8%
same,"viability, T/C",[22],83.3%
same,"viability, T/C",[23],49.4%
same,"viability, T/C",[24],15.8%
same,"viability, T/C",[25],80.5%
same,"viability, T/C",[26],69.3%
same,"viability, T/C",[27],53.4%
same,"viability, T/C",[28],53.4%
same,"viability, T/C",[29],35.4%
same,"viability, T/C",[30],3.3%
same,"viability, T/C",[31],42.2%
same,"viability, T/C",[32],26.6%
same,"viability, T/C",[33],22.3%
same,"viability, T/C",[34],18.9%
same,"viability, T/C",[35],7.98%
same,"viability, T/C",[36],0.65%
CC(Cn1ccc(-c2ccc(C#N)c(Cl)c2)n1)NC(=O)c1cc(C(C)O)[nH]n1 (stereo unspecified) + Cc1nc(NC(=O)N2CCCC2C(N)=O)sc1-c1ccnc(C(C)(C)C(F)(F)F)c1,IC50,second compound 0.0316 µM,> 10 µM
same,IC50,second compound 0.1 µM,> 10 µM
same,IC50,second compound 0.316 µM,> 10 µM
same,IC50,second compound 1 µM,> 10 µM
same,IC50,second compound 3.16 µM,> 10 µM
same,IC50,second compound 10 µM,< 0.0316 µM
same,"viability, T/C",[1],82.4%
same,"viability, T/C",[2],93%
same,"viability, T/C",[3],88.3%
same,"viability, T/C",[4],111%
same,"viability, T/C",[5],72%
same,"viability, T/C",[6],50.6%
same,"viability, T/C",[7],89.4%
same,"viability, T/C",[8],93.9%
same,"viability, T/C",[9],79.9%
same,"viability, T/C",[10],99%
same,"viability, T/C",[11],64.6%
same,"viability, T/C",[12],55.7%
same,"viability, T/C",[13],88%
same,"viability, T/C",[14],86.5%
same,"viability, T/C",[15],80.6%
same,"viability, T/C",[16],92.2%
same,"viability, T/C",[17],61.5%
same,"viability, T/C",[18],54%
same,"viability, T/C",[19],86.3%
same,"viability, T/C",[20],71.1%
same,"viability, T/C",[21],64.1%
same,"viability, T/C",[22],70.4%
same,"viability, T/C",[23],61.2%
same,"viability, T/C",[24],50.5%
same,"viability, T/C",[25],74.4%
same,"viability, T/C",[26],54.2%
same,"viability, T/C",[27],64.4%
same,"viability, T/C",[28],61.3%
same,"viability, T/C",[29],53.4%
same,"viability, T/C",[30],49.2%
same,"viability, T/C",[31],33.4%
same,"viability, T/C",[32],28.8%
same,"viability, T/C",[33],28.4%
same,"viability, T/C",[34],29.9%
same,"viability, T/C",[35],28.3%
same,"viability, T/C",[36],21.5%
CC1(C)CCC(Nc2ncc(C(F)(F)F)c(-c3c[nH]c4c(P(C)(C)=O)c(C#N)ccc34)n2)CN1 (stereo unspecified) + Cc1nc(NC(=O)N2CCCC2C(N)=O)sc1-c1ccnc(C(C)(C)C(F)(F)F)c1,IC50,second compound 0.0316 µM,< 0.0316 µM
same,IC50,second compound 0.1 µM,< 0.0316 µM
same,IC50,second compound 0.316 µM,< 0.0316 µM
same,IC50,second compound 1 µM,< 0.0316 µM
same,IC50,second compound 3.16 µM,< 0.0316 µM
same,IC50,second compound 10 µM,< 0.0316 µM
same,"viability, T/C",[1],12.9%
same,"viability, T/C",[2],13.4%
same,"viability, T/C",[3],10.2%
same,"viability, T/C",[4],12.3%
same,"viability, T/C",[5],10.3%
same,"viability, T/C",[6],1.66%
same,"viability, T/C",[7],13.4%
same,"viability, T/C",[8],13.6%
same,"viability, T/C",[9],11%
same,"viability, T/C",[10],11.7%
same,"viability, T/C",[11],9.67%
same,"viability, T/C",[12],1.49%
same,"viability, T/C",[13],16.6%
same,"viability, T/C",[14],10.6%
same,"viability, T/C",[15],9.57%
same,"viability, T/C",[16],11.6%
same,"viability, T/C",[17],9.4%
same,"viability, T/C",[18],1.34%
same,"viability, T/C",[19],13.8%
same,"viability, T/C",[20],10.9%
same,"viability, T/C",[21],9.4%
same,"viability, T/C",[22],10.7%
same,"viability, T/C",[23],7.46%
same,"viability, T/C",[24],1.27%
same,"viability, T/C",[25],15.4%
same,"viability, T/C",[26],10.6%
same,"viability, T/C",[27],9.84%
same,"viability, T/C",[28],9.67%
same,"viability, T/C",[29],5.93%
same,"viability, T/C",[30],1.32%
same,"viability, T/C",[31],11%
same,"viability, T/C",[32],7.92%
same,"viability, T/C",[33],8.97%
same,"viability, T/C",[34],6.88%
same,"viability, T/C",[35],4.2%
same,"viability, T/C",[36],0.98%
